The values that follow come from US10683326B2, “Crystalline salt forms” (Stealth BioTherapeutics Corp., priority 2016, dated 2020).

The conditions of data set [1]: counterion acid; cited from earlier work.
The conditions of data set [2]: counterion acid; cited from earlier work. This is another data set of the same source.
Data set [3] in a line: Dynamic Vapor Sorption (DVS). To be noted: for change in mass (DVS): between 20-90% RH. It counts as physicochemical. The procedure:
Approximately 10 mg of sample was placed into a mesh vapor sorption balance pan and loaded into a DVS-1 dynamic vapor sorption balance by Surface Measurement Systems. The sample was subjected to a ramping profile from 40-90% relative humidity (RH) at 10% increments, maintaining the sample at each step until a stable weight had been achieved (99.5% step completion). After completion of the sorption cycle, the sample was dried using the same procedure to 0% RH and then a second sorption cycle back to 40% RH. The weight changes during the sorption/desorption cycles were plotted, allowing the hygroscopic nature of the sample to be determined. XRPD analysis was then carried out on the remaining solid.

Data set [4] can be described thus: Hydration studies in IPA/water at 3 water activities, XRPD. It counts as physicochemical.
Data set [5] in a line: physchem. As to the method:
25 mL of 0.2 M potassium hydrogen phthalate solution and 2.50 mL of 0.2 M sodium hydroxide solution were diluted to 100 mL using deionized water. The pH was adjusted as required, using either potassium hydrogen phthalate or sodium hydroxide solution.
25 mL of 0.2 M potassium phosphate monobasic solution and 11.20 mL of 0.2 M sodium hydroxide solution were diluted to 100 mL using deionized water. The pH was adjusted as required, using either potassium phosphate monobasic or sodium hydroxide solution.

Data set [6] is described as follows: 7-day stability testing (40° C./75% RH, 80° C., ambient temperature and light), XRPD and HPLC. It counts as physicochemical. The following applies: 7 days. The procedure:
Approximately 30 mg of the tosylate and fumarate salts were subjected to 7-day stability testing under the following conditions: • 40° C./75% RH • 80° C. • Ambient temperature and light After 7 days under the stated conditions, XRPD and HPLC analysis was carried out on the resultant solid material. Salt Disproportionation Studies
Approximately 30 mg of the tosylate and fumarate salts were subjected to 7-day stability testing under the following conditions: • 40° C./75% RH • 80° C. • Ambient temperature and light • After 7 days under the stated conditions, XRPD and HPLC analysis was carried out on the resultant solid material. Hydration Studies
The scaled-up tosylate and fumarate salts were subjected to 7-day stability testing at 40° C./75% RH, 80° C. and ambient temperature and light.

A short description of data set [7]: Primary salt screen: stability testing of crystalline hits for 72 hours at 40° C./75% RH, post-stability XRPD and HPLC.
Description: The primary salt screen was carried out on 35 mg scale in a glovebag under nitrogen using >3 equivalents of the counterions in the appropriate solvent. The contents of the vials were temperature cycled from 30 to 5° C. Any solids were isolated and analyzed by XRFD. • Approximately 35 mg of received material was weighed into each vial, in a glovebag under nitrogen. If amorphous material or counterion isolated, material was returned to vial and solids re-dissolved through addition of an appropriate solvent. Further temperature cycling was then employed, followed by anti-solvent addition and evaporation if required. Solids, if present, were isolated by centrifugation and analyzed by XRPD.
Data set [8] can be described thus: Salt disproportionation studies (slurry in deionized water, pH and XRPD). The data set is classed as physicochemical. The following applies: 20° C. The procedure:
The scaled-up tosylate and fumarate salts were subjected to salt disproportionation studies at ambient temperature. The following observations and results were obtained during these disproportionation studies: • After stirring the tosylate salt at 20° C. in deionized water for 30 min, pH=2.58.

Where [9] appears, read: 40° C./75% RH, listed as tosylate.
The mark [10] stands for this setting: 40° C./75% RH, listed as fumarate.

Counter-ions that a name gives are not always drawn. Where a SMILES comes first, the peptide text is derived from it. [ ]: non-standard residue; d: D form. Dmt = Cc1cc(O)cc(C)c1C[C@H](N)C(=O)O

Usually LogP stands for the decadic logarithm of the partition coefficient of the neutral form, usually between octanol and water. In general, thermodynamic solubility refers to the concentration in solution at equilibrium with solid. One may read the solubility as how much of the substance goes into solution per volume. Low readings indicate little dissolved substance, high ones much dissolved substance.

For `CC(C)CCC[C@@H](C)[C@H]1CC[C@H]2[C@@H]3CC=C4C[C@@H](OS(=O)(=O)O)CC[C@]4(C)[C@H]3CC[C@]12C` [Cholesteryl sulfate], the LogP in data set [1] was 4.45.

For `CCCCCCCCCCCC(=O)O` [Lauric], the log partition coefficient (LogP) in data set [1] was 4.6. Also, in data set [2], the “pKa 1” value is listed as 4.90.

Take `O=C(O)C(=O)O` [Oxalic]: the LogP in data set [1] is reported as −1.19.

For `CCS(=O)(=O)O` [Ethanesulfonic acid], the LogP in data set [1] is on record as −1.36.

Regarding `O=C(O)CCCCC(=O)O` [Adipic], the LogP in data set [1] is 0.08.

As for `O=C(O)/C=C\C(=O)O` [Maleic], the LogP in data set [1] is −0.01.

On to `O=C(O)C[C@H](O)C(=O)O` [L-Malic], for which the LogP in data set [1] is −1.26.

In the case of `Cc1cc(O)cc(C)c1C[C@H](NC(=O)[C@H](N)CCCNC(=N)N)C(=O)N[C@@H](CCCCN)C(=O)N[C@@H](Cc1ccccc1)C(N)=O` [Tosylate Pattern 1] (H-[dR][Dmt]KF-NH2), in data set [3] (listed as tosylate salt), the “change in mass (DVS)” value was “ca. 1.3%”, the “Post-DVS XRPD analysis” value was “remained Pattern 1” and the “hygroscopicity by DVS analysis” value is reported as “slightly hygroscopic”. In addition, in data set [4] (aw=0.368, 0.608 and 0.911, 20° C., 25 h), the “XRPD analysis of the isolated solids after hydration studies” value is “unchanged”. Further, the solubility (thermodynamic) at 24 h in data set [5] (aqueous buffer pH 1.2, pH 1.2, Concentration by HPLC (thermodynamic solubility), buffer pH 1.2, 20° C., 24 h) stood at 23.8 mg/mL. For the same compound, the solubility at 24 h in data set [5] (aqueous buffers pH 1.2, 4.5 and 6.8) is roughly 25 mg/mL. The “Solid Form isolated after solubility study” value (“Solid Form isolated” for short) in data set [5] (buffer pH 1.2, 20° C., 24 h, listed as Tosylate) is “Pattern 1”. Also, in data set [5] (buffer pH 4.5, 20° C., 24 h), the “Solid Form isolated” value is “Pattern 1”. For the same compound, the “Solid Form isolated” value in data set [5] (buffer pH 6.8, 20° C., 24 h) is given as “Pattern 1”. For the same compound, in data set [5] (each buffer solution (pH 1.2, 4.5, 6.8), 20° C., 24 h), the “XRPD analysis of the isolated solids after thermodynamic solubility studies” value is given as “unchanged”. Further, the “Post-stability XRPD analysis” value in data set [6] (40° C./75% RH, 80° C. and ambient temperature and light) is listed as “unchanged”. In data set [6] (setting [9]), the “Purity by HPLC” value turned out to be 98.5% and the “decrease in purity after stability testing” value is on record as “ca. 1.3%”. The “Purity by HPLC” value in data set [6] (80° C., listed as Tosylate) is reported as 99.4%. Also, in data set [7] (40° C./75% RH, 72 hours), the “XRPD analysis of samples after stability testing” value is “improved in crystallinity” and the “purity by HPLC analysis of samples after stability testing” value was determined as 80.6%. Also, the “Purity by HPLC (post-stability)” value in data set [7] (72 hours at 40° C./75% RH) was 80.6. Moreover, the “Same XRPD, post-stability” value in data set [7] (72 hours at 40° C./75% RH, P1 = Pattern 1) is given as “yes”. The pH of slurry in data set [8] (30 min, listed as tosylate salt) turned out to be 2.58. For the same compound, in data set [8] (20 h, listed as tosylate salt), the “XRPD analysis of the post-slurry material” value is on record as “no change to the input Pattern 1 material” and the pH of slurry was 2.53.

Turning to `Cc1cc(O)cc(C)c1C[C@H](NC(=O)[C@H](N)CCCNC(=N)N)C(=O)N[C@@H](CCCCN)C(=O)N[C@@H](Cc1ccccc1)C(N)=O` [Fumarate Pattern 4] (H-[dR][Dmt]KF-NH2), in data set [3] (listed as fumarate salt), the “change in mass (DVS)” value is given as “ca. 11.5%”. Further, the “Post-DVS XRPD analysis” value in data set [3] (listed as fumarate salt) is given as “remained Pattern 4”. The “hygroscopicity by DVS analysis” value in data set [3] (listed as fumarate salt) is “hygroscopic”. For the same compound, the “XRPD analysis of the isolated solids after hydration studies” value is “Pattern 3” in data set [4] (aw=0.368 and 0.608, 20° C., 24 h); “Pattern 5” in data set [4] (aw=0.911, 20° C., 24 h). The “Solid Form isolated” value in data set [5] (buffer pH 1.2, 20° C., 24 h, listed as Fumarate) is reported as “Fumaric acid”; in data set [5] (buffer pH 1.2, 20° C., 24 h, listed as fumarate salt) it was “fumaric acid only”; in data set [5] (buffer pH 4.5, 20° C., 24 h, listed as fumarate salt), “Pattern 5”; in data set [5] (buffer pH 6.8, 20° C., 24 h, listed as fumarate salt) it was “No solid was isolated”. The “Purity by HPLC” value in data set [6] (setting [10]) is reported as 97.5%; in data set [6] (80° C., listed as Fumarate), 83.0%; in data set [6] (ambient temperature and light) it was 99.6%. In addition, the results for the “decrease in purity after stability testing” value in data set [6] (setting [10]) and in data set [6] (80° C.) were “ca. 2.4%” and “ca. 17%”, respectively. Also, the “Post-stability XRPD analysis” value in data set [6] (80° C.) is listed as “loss of crystallinity”; in data set [6] (lower temperatures: 40° C./75% RH or ambient conditions), “unchanged”. Besides, the pH of slurry in data set [8] (30 min, listed as fumarate salt) worked out at 3.50; in data set [8] (20 h, listed as fumarate salt), 3.48. The “XRPD analysis of the post-slurry material” value in data set [8] (20 h, listed as fumarate salt) is listed as “changed to a new pattern (designated Pattern 5)”.

Consider `N[C@@H](CCC(=O)O)C(=O)O` [L-Glutamic acid], for which the log partition coefficient (LogP) in data set [1] is −1.43.

For the compound `O=C(O)c1ccc2ccccc2c1O` [1-Hydroxy-2-naphthoic], in data set [1], the LogP is recorded as 3.29.

Take `Cc1ccc(S(=O)(=O)O)cc1` [p-Toluenesulfonic acid]: in data set [1], the LogP is 0.93.

Turning to `O=C[C@H](O)[C@@H](O)[C@H](O)[C@H](O)C(=O)O` [D-Glucuronic acid], the lipophilicity (LogP) in data set [1] was −1.49.

With `C[C@H](CCC(=O)O)[C@H]1CC[C@H]2[C@@H]3CC[C@@H]4C[C@H](O)CC[C@]4(C)[C@H]3C[C@H](O)[C@]12C` [Deoxycholic acid], the “pKa 1” value in data set [2] is 4.76.
